ChEMBL document CHEMBL1201862, “PubChem BioAssay data set” (2004)
Activity calls are given as the source filed them.

Tests used:
Major prion protein = Major prion protein (Homo sapiens, UniProt P04156); assay type: functional, cell-based
[1] = biological target: Disintegrin and metalloproteinase domain-containing protein 17 (Homo sapiens, UniProt P78536); test: exosite inhibitors of ADAM17, dose response, biochemical (AID 743260)
[2] = ADAM10 protease inhibitors, dose response, selectivity assay for ADAM17 exosite inhibitor project, biochemical, FRET peptide substrate, recombinant human ADAM10 (AID 743259);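 note: ADAM10 enzyme cleaving a FRET peptide substrate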
fMet-Leu-Phe receptor = fMet-Leu-Phe receptor (Homo sapiens, UniProt P21462); test: FPR ligands, dose response (AID 519); assay type: functional
[3] = biological target: T1, Rac GTPase-activating protein 1 (Homo sapiens, UniProt Q9H0H5); test: MgcRacGAP GTPase-activating activity inhibitors, confirmation, biochemical, ADP Hunter fluorescence, primary and confirmatory (AID 624330); assay type: functional
T1 sequence (Q9H0H5 whole entry): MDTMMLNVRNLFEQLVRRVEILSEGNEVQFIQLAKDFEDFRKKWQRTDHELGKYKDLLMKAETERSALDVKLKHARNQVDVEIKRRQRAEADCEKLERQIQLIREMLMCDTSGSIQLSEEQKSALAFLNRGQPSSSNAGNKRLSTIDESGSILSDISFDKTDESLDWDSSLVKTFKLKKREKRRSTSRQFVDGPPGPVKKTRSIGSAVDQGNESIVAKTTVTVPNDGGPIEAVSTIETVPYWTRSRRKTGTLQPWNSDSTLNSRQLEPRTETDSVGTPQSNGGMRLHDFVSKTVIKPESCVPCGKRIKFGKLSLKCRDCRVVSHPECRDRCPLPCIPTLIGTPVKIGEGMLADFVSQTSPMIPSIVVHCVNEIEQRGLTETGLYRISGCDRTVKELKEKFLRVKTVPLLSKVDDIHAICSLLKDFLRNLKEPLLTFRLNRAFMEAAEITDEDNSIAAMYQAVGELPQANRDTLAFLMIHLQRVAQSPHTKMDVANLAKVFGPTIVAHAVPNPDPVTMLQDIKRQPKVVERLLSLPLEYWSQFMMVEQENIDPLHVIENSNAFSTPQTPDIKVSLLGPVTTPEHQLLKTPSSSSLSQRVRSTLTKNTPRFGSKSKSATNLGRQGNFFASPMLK

[4] = CFTR ΔF508 corrector activity in bronchial cells, dose response, human bronchial epithelial cells, plate reader, cherry-pick, two tests (AID 743267); assay type: functional, cell-based
[5] = THP-1 cell cytotoxicity, dose response, cytotoxicity control for Vif-APOBEC3G degradation inhibitor project, THP-1 cells (AID 1117359); assay type: functional; settings: Human immunodeficiency virus 1, THP-1
[6] = biological target: Endoplasmic reticulum aminopeptidase 1 (Homo sapiens, UniProt Q9NZ08); test: ERAP1 aminopeptidase inhibitors, dose response, biochemical, cherry-pick, set 2, plate reader (AID 743314)
[7] = MITF Orthogonal Assay: SK-MEL-5 CTG Assay Measured in Cell-Based System Using Plate Reader - 2084-02_Inhibitor_Dose_DryPowder_Activity_Set7.; assay type: functional
[8] = MITF: Counter assay: A375 proliferation Measured in Cell-Based System Using Plate Reader - 2084-03_Inhibitor_Dose_DryPowder_Activity_Set8.; assay type: functional; settings: A-375
[9] = TRPM1 promoter luciferase reporter signal decrease, dose response, MITF inhibitor project, cell-based, SK-MEL-5, dry powder, set 8 (AID 624430); assay type: functional
Cryptococcus neoformans [10] = test: PubChem AID 686997; assay type: functional, organism-based
Cryptococcus neoformans [11] = test: Cryptococcus growth inhibition by alamar blue – cell lysis, cherry-picks, replicate tests, mechanism study for C. neoformans antifungal project, dose response (AID 686999); assay type: functional, organism-based

## CCOc1ccc(-n2nc3c(S)nnc(C)c3c2C)cc1
Major prion protein
  IC50: 0.321 µM (active)
cells
  IC50: > 138 µM (inactive)

## CCOC(=O)CC(SP1(=S)OCC2(CCCCO2)C(C2CCCCO2)O1)C(=O)OCC (centres undefined)
[1]
  IC50: 32.8 µM (inactive)
[2]
  IC50: 56.3 µM (inactive)

## COc1ccc(-c2cn3cccnc3n2)cc1NC(=O)C1CCCC1
fMet-Leu-Phe receptor
  Ki: > 66.7 µM (inactive)

## C=CC/N=c1\scc(C)n1/N=C/c1ccc(O)c(O)c1
[3]
  IC50: 17.4 µM (active)
[4]
  AC50: 50 µM (active)
[5]
  CC50: 19.8 µM (active)

## CC1CCN(Cc2cc(=O)oc3cc(O)c(Cl)cc23)CC1
[6]
  AC50: 6.33 µM (active)

## CCN1CCN(C2=C(Nc3cccc(Cl)c3)C(=O)c3ccccc3C2=O)CC1
[7]
  AC50: 10.1 µM (active)
[8]
  AC50: 31.7 µM (active)
[9]
  AC50: 2.94 µM (active)

## COC(=O)C1=C(C)N(Cc2ccccc2)C(=S)NC1c1ccc(Br)cc1 (centres undefined)
Cryptococcus neoformans [10]
  AC50: 25 µM (active)
Cryptococcus neoformans [11]
  AC50: 35 µM (active)
